The values that follow come from patent publication US8709719B2, “ZNF217 a new prognostic and predictive biomarker of recurrent invasive and metastatic phenotypes in breast cancer” (Centre Leon Berard, priority 2009, dated 2014).

In test [1] the test system is MVLN cells. In words: Cell proliferation assay (BrdU) in MVLN cells. In kind it is cell-based. To be noted: 200 nM OH-Tam. As for the experimental part: (§1) FIG. 13: Endocrine resistance is reversed in the presence of an siRNA-ZNF217 in OH-Tam-resistant CL6.7 cells. Total protein extracts from cell lines were analyzed by Western blotting with an anti-ZNF217. Expression of α-tubulin was used as an invariant control. (A) Western-blot analysis of ZNF217 in transfected MVLN and CL6.7 cells with either scrambled RNA or with an siRNA-ZNF217. (B) Cell proliferation (BrdU test) of transfected MVLN and CL6.7 cells with either scrambled RNA or siRNA-ZNF217, in the presence or the absence of 200 nM OH-Tam. This assay was performed in steroid-free medium. P-value (Student's t-test) was considered as significant when P<0.05.
(§2) MCF7 and MDA-MB-231 breast cancer cells were purchased from ATCC and grown according to recommendations in DMEM medium supplemented with 10% fetal bovine serum (Invitrogen, Cergy Pontoise, Paris). S30 cells and their MDA-MB-231 control cells have been previously described (Levenson et al., 2003). The cellular model of endocrine resistance (MVLN and CL6.7 cells) have been previously established and described (Demirpence et al., 1993).
(§3) Proliferating cells were analyzed using the Cell Proliferation ELISA, BrdU (colorimetric) Kit (Roche, Meylan, France). […]

For test [2], the system named is CL6.7 cells. In words: Cell proliferation assay (BrdU) in OH-Tam-resistant CL6.7 cells. In kind it is cell-based. To be noted: 200 nM OH-Tam. As to the method:
as §1, §2, §3

As for `CC/C(=C(\c1ccc(O)cc1)c1ccc(OCCN(C)C)cc1)c1ccccc1` [OH-Tam, OH-Tamoxifen], the “effect of OH-Tam exposure on cell proliferation” value is recorded as “cytostatic activity” in test [1] (MVLN cells (OH-Tam-sensitive), steroid-free medium) and “strong stimulation of CL6.7 cell proliferation” in test [2] (CL6.7 cells (OH-Tam-resistant), steroid-free medium). The “sensitivity to endocrine therapy (cell proliferation)” value in test [1] (MVLN cells, OH-Tam exposure combined with ZNF217 knockdown (siRNA), P=0.001) is listed as “increased sensitivity to endocrine therapy”. For the same molecule, in test [2] (CL6.7 cells, OH-Tam exposure combined with ZNF217 knocking-out (siRNA), P<10^-5), the “inhibition of cell proliferation” value was found to be 35%.
